Reference: patent US20090054435A1, “Phenoxyalkanoic Acid Compound” (priority 2005, published 2009)

How the values were obtained:
[1] = system: KKAy mice; experiment: Blood glucose and blood lipid (triglyceride) lowering action in mice; format: in vivo; settings: 0.01% in powder diet, 6 days
From the text: The test compound was mixed with a powder diet (CE-2, CLEA JAPAN, INC.) at a proportion of 0.01% (0.03% for the compound of Example 1) and freely given to KKAy mice (9 to 12-week-old, 5 mice per group) which are obese non-insulin-dependent diabetes (type-2 diabetes) models, for 6 days. During this period, water was freely given to the mice. The blood was drawn from the orbital venous plexus. Glucose and triglyceride in the plasma separated from the blood were quantitated using L Type Wako Glu2 (Wako Pure Chemical Industries, Ltd.) and L Type Wako TG·H (Wako Pure Chemical Industries, Ltd.), respectively, according to an enzyme method.

[2] = biological target: T1, PPAR γ-RXRα heterodimer (Homo sapiens, UniProt P37231); experiment: PPAR γ-RXRα heterodimer ligand activity (luciferase reporter in PPAR γ:RXRα:4ERPP/CHO-K1 cells); format: cell-based
T1 construct: expressed in transfected cells; host or cells: CHO-K1 (PPAR γ:RXRα:4ERPP/CHO-K1)
T1 sequence (P37231 29-505 limits assumed): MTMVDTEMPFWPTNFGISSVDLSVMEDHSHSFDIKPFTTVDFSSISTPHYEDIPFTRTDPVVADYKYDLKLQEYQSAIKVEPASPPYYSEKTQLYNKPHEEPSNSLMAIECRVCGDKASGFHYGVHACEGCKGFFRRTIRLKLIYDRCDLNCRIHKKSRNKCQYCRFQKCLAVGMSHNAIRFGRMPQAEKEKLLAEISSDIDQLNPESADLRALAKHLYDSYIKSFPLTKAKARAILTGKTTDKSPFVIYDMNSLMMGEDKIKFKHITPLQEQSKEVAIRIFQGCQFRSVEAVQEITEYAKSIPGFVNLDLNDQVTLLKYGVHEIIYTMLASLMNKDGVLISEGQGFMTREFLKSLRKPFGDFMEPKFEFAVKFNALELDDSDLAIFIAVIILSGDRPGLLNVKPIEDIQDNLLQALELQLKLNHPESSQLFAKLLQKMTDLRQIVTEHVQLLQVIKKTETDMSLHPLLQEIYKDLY
T1 sequence (P19793 1-462 partner): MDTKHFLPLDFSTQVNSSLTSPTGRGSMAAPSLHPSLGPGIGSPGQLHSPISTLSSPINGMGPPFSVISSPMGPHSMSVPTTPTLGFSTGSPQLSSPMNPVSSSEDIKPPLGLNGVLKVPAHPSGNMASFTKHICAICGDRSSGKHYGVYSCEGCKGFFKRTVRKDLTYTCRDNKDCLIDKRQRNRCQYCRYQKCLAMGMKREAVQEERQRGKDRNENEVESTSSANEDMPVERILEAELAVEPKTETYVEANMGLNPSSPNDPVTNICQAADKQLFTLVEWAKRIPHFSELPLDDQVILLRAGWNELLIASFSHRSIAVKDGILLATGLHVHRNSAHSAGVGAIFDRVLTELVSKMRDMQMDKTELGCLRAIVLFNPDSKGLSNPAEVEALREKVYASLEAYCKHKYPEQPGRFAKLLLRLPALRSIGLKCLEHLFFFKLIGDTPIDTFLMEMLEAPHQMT
Experimental: The PPAR γ:RXRα:4ERPP/CHO-K1 cells described in WO03/099793 were cultured in a HamF12 medium [manufactured by Life Technologies, Inc., US] containing 10% calf fetal serum [manufactured by Life Technologies, Inc., US], sown in a 96-well white plate [manufactured by Corning Coster Corporation, US] at 2×10^4 cells/well, and incubated overnight in a carbon dioxide gas incubator at 37° C.
Then, the medium was removed from the 96 well white plate, 80 μl of HamF12 medium containing 0.1% fatty acid-free bovine serum albumin (BSA) and a test compound (20 μl) were added, and the cells were incubated for 18-24 hr in a carbon dioxide gas incubator at 37° C. The medium was removed, 40 μl of PicaGene7.5 (manufactured by Wako Pure Chemical Industries, Ltd.) 2-fold diluted with HBSS (HANKS' BALANCED SALT SOLUTION) [manufactured by BIO WHITTAKER, US] was added. After stirring, the luciferase activity was determined using the 1420 ARVO Multilabel Counter [manufactured by PerkinElmer, US].
The induction rate was calculated from the luciferase activity of each test compound based on the luciferase activity of the test compound non-administration group as 1. The test compound concentration and the induction rate were analyzed by PRISM [manufactured by GraphPad Software, Inc., US] to calculate EC50 value (compound concentration showing 50% of the maximum value of induction rate) of the test compound.
In addition, the luciferase activity induction magnification maximum value of each test compound relative to that of the 5-{4-[2-(5-methyl-2-phenyl-1,3-oxazol-4-yl)ethoxy]benzyl}-1,3-thiazolidin-2,4-dione (PPARγ full agonist) administration group as 100% was defined as Vmax and calculated.

## COc1ccc(C(=O)c2ccc(OCc3nc(-c4ccccc4)oc3C)cc2)c(O[C@H](C)C(=O)O)c1 [Example 53, (2R)-2-(5-methoxy-2-{4-[(5-methyl-2-phenyl-1,3-oxazol-4-yl)methoxy]benzoyl}phenoxy)propanoic acid]
[1]; decrease rate of blood glucose vs non-administration group (100%)
  hypoglycemic action (%): 46%
[1]; decrease rate of blood triglyceride vs non-administration group (100%)
  hypolipidemic action (%): 12%
[2]; compound concentration showing 50% of the maximum induction rate of luciferase activity, 18-24 hr incubation
  EC50: 5.1 nM
[2]; maximum luciferase induction relative to 5-{4-[2-(5-methyl-2-phenyl-1,3-oxazol-4-yl)ethoxy]benzyl}-1,3-thiazolidin-2,4-dione (PPARγ full agonist) as 100%
  Vmax (%): 60%
other
  melting point: 169 to 170 °C
